In patent US7217722B2 (Kirin Beer Kabushiki Kaisha, priority 2000, dated 2007):

target: Rho kinase (fused protein of bovine Rho kinase catalyst region and glutathione S-transferase) (Bos taurus, UniProt Q28021); assay: Rho kinase inhibitory activity (phosphorylation of S6 231–239 substrate, γ32P-ATP); assay type: biochemical; settings: concentration inhibiting substrate phosphorylation by 50%
Protocol: This permits the substrate to be labeled with the radioisotope.
Thereafter, the substrate was adsorbed to a filter paper. ATP was washed away with a phosphoric acid solution, and the amount of the phosphorylated substrate was then measured with a liquid scintillation counter.

Sequence of Rho kinase (fused protein of bovine Rho kinase catalyst region and glutathione S-transferase) (Q28021 92-354 limits assumed): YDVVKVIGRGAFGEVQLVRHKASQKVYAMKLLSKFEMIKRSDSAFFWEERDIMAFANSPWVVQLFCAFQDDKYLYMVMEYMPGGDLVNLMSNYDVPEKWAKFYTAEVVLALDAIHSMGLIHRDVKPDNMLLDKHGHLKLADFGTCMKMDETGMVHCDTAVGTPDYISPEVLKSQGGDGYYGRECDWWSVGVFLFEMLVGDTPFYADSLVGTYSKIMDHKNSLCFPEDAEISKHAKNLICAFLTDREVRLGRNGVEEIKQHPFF

Point of comparison: `CCN1CCC(Nc2ccc3[nH]ncc3c2)CC1` [Example 125, N-(1-Ethyl-4-piperidyl)-N-(1H-5-indazolyl)-amine], IC50 747 nM. Against it:
- O=C(NCC1CCCCC1)Nc1ccncc1 [Example 75, N-Cyclohexylmethyl-N′-(4-pyridyl)urea] — 8.1-fold higher, 6030 nM
- O=C(NCC1CCCCC1)Nc1ccc2c(c1)C(=O)NC2=O [Example 76, N-Cyclohexylmethyl-N′-(1,3-dioxo-2,3-dihydro-1H-5-isoindolyl)urea] — 2.3-fold higher, 1690 nM
- O=C(NCc1c(F)cc(F)cc1F)Nc1ccncc1 [Example 77, N-(4-Pyridyl)-N′-(2,4,6-trifluorobenzyl)urea] — 5.4-fold higher, 4070 nM
- O=C(Nc1cccc([N+](=O)[O-])c1)Nc1ccc2c(c1)C(=O)NC2=O [Example 78, N-(1,3-Dioxo-2,3-dihydro-1H-5-isoindolyl)-N′-(3-nitrophenyl)urea] — 14-fold higher, 10400 nM
- Nc1cccc(NC(=O)Nc2ccc3c(c2)C(=O)NC3=O)c1 [Example 79] — 11-fold higher, 8570 nM
- O=C(NCc1c(Cl)cccc1Cl)Nc1cc2c(cc1Cl)C(=O)NC2=O [Example 81, N-(6-Chloro-1,3-dioxo-2,3-dihydro-1H-5-isoindolyl)-N′-(2,6-dichlorobenzyl)urea] — 14-fold lower, 54 nM
- O=C(NCc1ccccc1Cl)Nc1ccc2c(c1)C(=O)NC2=O [Example 82, N-(2-Chlorobenzyl)-N′-(1,3-dioxo-2,3-dihydro-1H-5-isoindolyl)urea] — 2.6-fold lower, 290 nM
- O=C(NCc1ccccc1)Nc1ccc2[nH]ncc2c1 [Example 84, N-Benzyl-N′-(1H-5-indazolyl)urea] — 2.9-fold lower, 260 nM
- O=C(NCc1cccc2ccccc12)Nc1ccc2c(c1)C(=O)NC2=O [Example 85, N-(1,3-Dioxo-2,3-dihydro-1H-5-isoindolyl)-N′-(1-naphthylmethyl)urea] — 4.2-fold lower, 180 nM
- O=C(NCc1ccccc1[N+](=O)[O-])Nc1ccc2c(c1)C(=O)NC2=O [Example 86, N-(1,3-Dioxo-2,3-dihydro-1H-5-isoindolyl)-N′-(2-nitrobenzyl)urea] — within 1.5-fold, 900 nM
- Nc1ccccc1CNC(=O)Nc1ccc2c(c1)C(=O)NC2=O [Example 87] — 4.2-fold lower, 180 nM
- O=C(NCc1ccc(Cl)cc1Cl)Nc1ccc2c(c1)C(=O)NC2=O [Example 88, N-(2,4-Dichlorobenzyl)-N′-(1,3-dioxo-2,3-dihydro-1H-5-isoindolyl)urea] — 1.7-fold lower, 440 nM
- O=C(NCc1c(Cl)ccc(Cl)c1Cl)Nc1ccc2c(c1)C(=O)NC2=O [Example 89, N-(1,3-Dioxo-2,3-dihydro-1H-5-isoindolyl)-N′-(2,3,6-trichlorobenzyl)urea] — 2.5-fold lower, 300 nM
- O=C(NCc1c(F)cccc1C(F)(F)F)Nc1ccc2c(c1)C(=O)NC2=O [Example 91, N-(1,3-Dioxo-2,3-dihydro-1H-5-isoindolyl)-N′-[2-fluoro-6-(trifluoromethyl)benzyl]urea] — 7.5-fold lower, 99 nM
- O=C(NCc1ccccc1)Nc1ccncc1 [Example 92, N-Benzyl-N′-(4-pyridyl)urea] — 14-fold higher, 10200 nM
- O=C(NCc1ccccc1[N+](=O)[O-])Nc1ccncc1 [Example 93, N-(2-Nitrobenzyl)-N′-(4-pyridyl)urea] — 17-fold higher, 12500 nM
- O=C(NCc1ccccc1Cl)Nc1ccncc1 [Example 94, N-(2-Chlorobenzyl)-N′-(4-pyridyl)urea] — 9.6-fold higher, 7200 nM
- O=C(NCc1c(F)cccc1C(F)(F)F)Nc1ccc2[nH]ncc2c1 [Example 96, N-[2-fluoro-6-(trifluoromethyl)benzyl]-N′-(1H-5-indazolyl)urea] — 3.2-fold lower, 230 nM
- O=C(NCc1c(F)c(F)c(F)c(F)c1F)Nc1ccncc1 [Example 97, N-(2,3,4,5,6-Pentafluorobenzyl)-N′-(4-pyridyl)urea] — 2.8-fold higher, 2100 nM
- O=C(NCc1c(F)c(F)c(F)c(F)c1F)Nc1ccc2c(c1)C(=O)NC2=O [Example 98, N-(1,3-Dioxo-2,3-dihydro-1H-5-isoindolyl)-N′-(2,3,4,5,6-pentafluorobenzyl)urea] — 1.8-fold lower, 410 nM
- O=C(NCc1c(F)cc(F)cc1F)Nc1ccc2c(c1)C(=O)NC2=O [Example 99, N-(1,3-Dioxo-2,3-dihydro-1H-5-isoindolyl)-N′-(2,4,6-trifluorobenzyl)urea] — 3.1-fold lower, 240 nM
- O=C(NCc1ccc(Cl)cc1Cl)Nc1ccc2[nH]ncc2c1 [Example 100, N-(2,4-Dichlorobenzyl)-N′-(1H-5-indazolyl)urea] — 3.4-fold lower, 220 nM
- O=C(NCc1c(Cl)ccc(Cl)c1Cl)Nc1ccc2[nH]ncc2c1 [Example 101, N-(1H-5-Indazolyl)-N′-(2,3,6-trichloro-benzyl)urea] — 2.4-fold higher, 1800 nM
- O=C(NCc1c(F)cc(F)cc1F)Nc1ccc2[nH]ncc2c1 [Example 103, N-(1H-5-Indazolyl)-N′-(2,4,6-trifluorobenzyl)urea] — 2.9-fold lower, 260 nM
- O=C(NCc1ccccc1Cl)Nc1ccc2[nH]ncc2c1 [Example 104, N-(2-Chlorobenzyl)-N′-(1H-5-indazolyl)urea] — 3.1-fold lower, 240 nM
- O=C(NCC1CCCCC1)Nc1ccc2[nH]ncc2c1 [Example 105, N-Cyclohexylmethyl-N′-(1H-5-indazolyl)urea] — 1.9-fold lower, 390 nM
- O=C(NCc1c(Cl)cccc1Cl)Nc1ccc2[nH]ncc2c1 [Example 106, N-(2,6-Dichlorobenzyl)-N′-(1H-5-indazolyl)urea] — 1.9-fold higher, 1400 nM
- O=C(NCc1cccc2ccccc12)Nc1ccc2[nH]ncc2c1 [Example 107, N-(1H-5-Indazolyl)-N′-(1-naphthylmethyl)urea] — 1.6-fold lower, 470 nM
- O=C(NCc1c(F)ccc(F)c1F)Nc1ccncc1 [Example 108, N-(Pyridyl)-N′-(2,3,6-trifluorobenzyl)urea] — 5.1-fold higher, 3800 nM
- O=C(NCc1c(F)ccc(F)c1F)Nc1ccc2c(c1)C(=O)NC2=O [Example 109, N-(1,3-Dioxo-2,3-dihydro-1H-5-isoindolyl)-N′-(2,3,6-trifluorobenzyl)urea] — 4.6-fold lower, 161 nM
- O=C(NCc1c(F)ccc(F)c1F)Nc1ccc2[nH]ncc2c1 [Example 110, N-(1H-5-Indazolyl)-N′-(2,3,6-trifluorobenzyl)urea] — 3.8-fold lower, 195 nM
- O=C(NCc1cccc([N+](=O)[O-])c1)Nc1ccncc1 [Example 111, N-(3-Nitrobenzyl)-N′-(4-pyridyl)urea] — 2.4-fold higher, 1770 nM
- Nc1cccc(CNC(=O)Nc2ccc3c(c2)C(=O)NC3=O)c1 [Example 112, N-(3-Aminobenzyl)-N′-(1,3-dioxo-2,3-dihydro-1H-5-isoindolyl)urea] — 2.4-fold lower, 310 nM
- COc1cc(CNC(=O)Nc2ccc3[nH]ncc3c2)ccc1O [Example 113, N-(4-Hydroxy-3-methoxybenzyl)-N′-(1H-5-indazolyl)urea] — 1.5-fold lower, 492 nM
- Clc1ccc(CN2CCC(Nc3ccc4[nH]ncc4c3)CC2)cc1Cl [Example 114, N-[1-(3,4-Dichlorobenzyl)-4-piperidyl]-N-(1H-5-indazolyl)amine] — 2.3-fold lower, 329 nM
- Cc1ccc(CN2CCC(Nc3ccc4[nH]ncc4c3)CC2)cc1C [Example 115, N-[1-(3,4-Dimethylbenzyl)-4-piperidyl]-N-(1H-5-indazolyl)amine] — 2-fold lower, 372 nM
- c1ccc2cc(CN3CCC(Nc4ccc5[nH]ncc5c4)CC3)ccc2c1 [Example 116, N-(1H-5-Indazolyl)-N-[1-(2-naphthylmethyl)-4-piperidyl]amine] — 5.5-fold lower, 136 nM
- Fc1cccc(CN2CCC(Nc3ccc4[nH]ncc4c3)CC2)c1 [Example 117, N-[1-(3-Fluorobenzyl)-4-piperidyl]-N-(1H-5-indazolyl)amine] — 2.4-fold lower, 317 nM
- FC(F)(F)c1ccc(CN2CCC(Nc3ccc4[nH]ncc4c3)CC2)cc1 [Example 118, N-(1H-5-Indazolyl)-N-{1-[4-(trifluoromethyl)benzyl]-4-piperidyl}amine] — 2.7-fold lower, 275 nM
- COc1cccc(CN2CCC(Nc3ccc4[nH]ncc4c3)CC2)c1 [Example 119, N-(1H-5-Indazolyl)-N-[1-(3-methoxybenzyl)-4-piperidyl]amine] — 2-fold lower, 383 nM
- CCc1ccc(CN2CCC(Nc3ccc4[nH]ncc4c3)CC2)cc1 [Example 120, N-[1-(4-Ethylbenzyl)-4-piperidyl]-N-(1H-5-indazolyl)amine] — 3.1-fold lower, 241 nM
- CCc1ccccc1CN1CCC(Nc2ccc3[nH]ncc3c2)CC1 [Example 121, N-[1-(2-Ethylbenzyl)-4-piperidyl]-N-(1H-5-indazolyl)amine] — within 1.5-fold, 513 nM
- CC(C)c1ccc(CN2CCC(Nc3ccc4[nH]ncc4c3)CC2)cc1 [Example 122, N-(1H-5-Indazolyl)-N-[1-(4-isopropylbenzyl)-4-piperidyl]amine] — 2.4-fold lower, 309 nM
- c1ccc(Oc2cccc(CN3CCC(Nc4ccc5[nH]ncc5c4)CC3)c2)cc1 [Example 123, N-(1H-5-Indazolyl)-N-[1-(3-phenoxybenzyl)-4-piperidyl]amine] — 3.4-fold lower, 220 nM
- Cc1ccc(CN2CCC(Nc3ccc4[nH]ncc4c3)CC2)cc1[N+](=O)[O-] [Example 124] — 3.1-fold lower, 238 nM
- c1cc2[nH]ncc2cc1NC1CCCCC1 [Example 129, N-Cyclohexyl-N-(1H-5-indazolyl)amine] — within 1.5-fold, 670 nM
- c1ccc(CCN2CCC(Nc3ccc4[nH]ncc4c3)CC2)cc1 [Example 130, N-(1H-5-Indazolyl)-N-(1-phenethyl-4-piperidyl)amine] — 1.6-fold lower, 457 nM
- c1cncc(CN2CCC(Nc3ccc4[nH]ncc4c3)CC2)c1 [Example 132, N-(1H-5-Indazolyl)-N-[1-(3-pyridylmethyl)-4-piperidyl]amine] — within 1.5-fold, 603 nM
- c1cc(CN2CCC(Nc3ccc4[nH]ncc4c3)CC2)ccn1 [Example 133, N-(1H-5-Indazolyl)-N-[1-(4-pyridylmethyl)-4-piperidyl]amine] — within 1.5-fold, 680 nM
- Clc1ccccc1CN1CCC(Nc2ccc3[nH]ncc3c2)CC1 [Example 134, N-[1-(2-Chlorobenzyl)-4-piperidyl]-N-(1H-5-indazolyl)amine] — 1.7-fold lower, 436 nM
- Clc1cccc(CN2CCC(Nc3ccc4[nH]ncc4c3)CC2)c1 [Example 135, N-[1-(3-Chlorobenzyl)-4-piperidyl]-N-(1H-5-indazolyl)amine] — 2.6-fold lower, 285 nM
- Fc1ccc(CN2CCC(Nc3ccc4[nH]ncc4c3)CC2)cc1 [Example 137, N-[1-(4-Fluorobenzyl)-4-piperidyl]-N-(1H-5-indazolyl)amine] — 1.6-fold lower, 478 nM
- COc1ccc(CN2CCC(Nc3ccc4[nH]ncc4c3)CC2)cc1 [Example 138, N-(1H-5-Indazolyl)-N-[1-(4-methoxybenzyl)-4-piperidyl]amine] — 2.1-fold lower, 355 nM
